# PMC5522078, “Discovery and characterization of small molecules targeting the DNA-binding ETS domain of ERG in prostate cancer” (Oncotarget, 2017)
# Experiments:
# [1] = molecular target: T1, ERG-DNA complex (Homo sapiens, UniProt P11308); assay: EMSA with VCaP nuclear lysate; assay type: binding; settings: 55 ng/μl nuclear extract, 4 μM to 8 mM
# T1 construct: VCaP (endogenous overexpression); endogenous in cells; host or cells: VCaP (whole cells for A2 and A17; nuclear extract for A16)
# T1 sequence (P11308 33-479 limits assumed): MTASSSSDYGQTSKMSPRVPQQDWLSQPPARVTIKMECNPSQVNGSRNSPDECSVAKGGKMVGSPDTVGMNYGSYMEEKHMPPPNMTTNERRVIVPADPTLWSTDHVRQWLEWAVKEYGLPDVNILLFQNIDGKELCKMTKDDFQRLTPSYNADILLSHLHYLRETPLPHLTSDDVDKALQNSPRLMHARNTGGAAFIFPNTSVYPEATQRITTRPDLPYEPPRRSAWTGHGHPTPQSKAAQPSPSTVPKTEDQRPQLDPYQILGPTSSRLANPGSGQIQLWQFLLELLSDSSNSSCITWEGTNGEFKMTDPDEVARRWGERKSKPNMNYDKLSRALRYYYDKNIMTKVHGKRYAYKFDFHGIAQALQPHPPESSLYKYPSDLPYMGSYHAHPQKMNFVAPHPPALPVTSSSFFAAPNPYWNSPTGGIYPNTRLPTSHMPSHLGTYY
# Protocol: For experiments involving ERG from VCaP cells, VCaP nuclear protein was extracted using CelLytic NuCLEAR Extraction Kit (Sigma). […] For subsequent assays, 55 ng/μl of the nuclear extract was mixed with 1 nM of fluorophore-labeled dsDNA, titrated with VPC-18005 (diluted from a DMSO stock) and analyzed by the same EMSA protocol.
# [2] = tested on: PNT1B-MOCK cells; assay: pETS-luc luciferase assay in PNT1B-MOCK cells (non-specific effect); assay type: cell-based, human; settings: increasing concentrations, 48 h; compared to PNT1B-ERG cells
# Protocol: All of the compounds selected from the virtual screening were tested in a luciferase-based ERG-responsive reporter assay, using two ERG-overexpressing cell lines, VCaP and PNT1B-ERG, previously developed in house. […] Data were normalized first to Renilla luciferase and then to the DMSO-media control on each plate, unless otherwise stated. Initial hit compounds were identified as those with an average normalized luciferase reading (firefly luciferase/Renilla luciferase readings) that is 60% or less of the average normalized luciferase reading of the DMSO-media control (i.e. 40% or more reduction of luciferase activity) at 10 μM. Representative example of raw Renilla luciferase readings presented in Supplementary Figure 9B. […]
# Supplementary Figure 3: VPC-18005 selectively suppresses ERG-mediated transcriptional activity. […] Data are presented as the mean ± SEM of 4 technical replicates and expressed as luciferase:renilla ratio (activity).
# (B) Luciferase assay was performed on VCaP cells transfected with ETS responsive luciferase reporter and treated with DMSO (0) or 0.1, 1, or 10 nM R1881 in the presence of 25 μM of VPC-18005. Data are presented as the mean ± SEM of 4 technical replicates and expressed as the luciferase:renilla ratio relative to VPC-18005 alone. […]
# [3] = tested on: RWPE-ERG cells; assay: MTS cell viability assay, RWPE-ERG; assay type: cell-based; settings: increasing concentrations (0.2 to 25 μM), 72 h
# Protocol: Twenty four hours later, 100 μL of medium containing vehicle control or compounds. Each treatment was prepared in triplicate. After a 72 h treatment, cellular viability was assessed using CellTiter 96 ® Aqueous One Solution Cell Proliferation Assay reagent (Promega) according to the manufacturer's instructions. Values were normalized to the DMSO control. page 8: Supplementary Figure 4: VPC-18005 suppresses migration, but not growth of RWPE-1-ERG cells. (A) Cell viability (MTS) of ERG-expressing cells (RWPE-ERG) (closed circle) and non-ERG expressing cells (RWPE-MOCK (open square)) after treatment […] Impact on viability is presented as the mean ± SEM […] (B) RWPE-1-Mock or (C) […] The normalized cell index is a measure of the migration of the cells through the pores of the upper chamber and is used as the migration index. Dotted lines represent 1 standard deviation (SD) of the mean migration rate.
# [4] = molecular target: T2, ERG (Homo sapiens, UniProt P11308); assay: ERG protein stability, Western blot after cycloheximide; assay type: cell-based; settings: VCaP cells
# T2 construct: VCaP (endogenous overexpression); endogenous in cells; host or cells: VCaP (whole cells for A2 and A17; nuclear extract for A16)
# T2 sequence (P11308 33-479 limits assumed): T1 sequence (P11308 33-479 limits assumed)
# Protocol: Cells were lysed on ice with RIPA buffer containing a protease inhibitor cocktail (Pierce). Primary antibodies: ERG (1:1,000, EPR3864(2), Abcam), α-Tubulin (1:20,000, Millipore), Vinculin (1:1,000, Abcam). Immunoreactivity was detected with the use of the goat anti-rabbit or rabbit anti-mouse horseradish peroxidase (HPR)–conjugated secondary antibody (1:10,000) (Santa Cruz), and visualization was achieved by chemiluminescence (Pierce). To inhibit protein synthesis, 10 μM cycloheximide was added for 1 h and then replaced with treatment medium for indicated time frame.
# [5] = molecular target: T3, ETS domain of ETV4 (Homo sapiens, UniProt P43268); assay: Preliminary NMR spectroscopic experiments, ETV4; assay type: binding
# T3 sequence (P43268 341-421 limits assumed): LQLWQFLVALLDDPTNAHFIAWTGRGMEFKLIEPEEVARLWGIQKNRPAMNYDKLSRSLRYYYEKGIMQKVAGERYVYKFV
# [6] = molecular target: ETS domain of PU.1 (Homo sapiens, UniProt P17947); assay: Preliminary NMR spectroscopic experiments, PU.1; assay type: binding
structure (smiles),measurement,setting,value
"CC(C)c1ccc(C=N/N=C2\NC(=O)[C@@H](CC(=O)O)S2)cc1 (stereo in doubt) [VPC-18005, 2-((Z)-2-(((Z)-4-isopropylbenzylidene)hydrazono)-4-oxothiazolidin-5-yl)acetic acid]","Disruption of ERG-DNA complex formation, VCaP nuclear lysate",[1],disrupted ERG-DNA complex formation
same,Impact on the reporter signal in PNT1B-MOCK,[2],minimal impact
same,"Effect on cell viability (MTS), RWPE cells overexpressing ERG",[3],No effect on cell viability
same,"ERG protein degradation, 4 h","[4]; cycloheximide pre-treatment, up to 50 μM for 4 h",did not induce ERG degradation
same,"ERG protein degradation, 24 and 48 h","[4]; cycloheximide, 24 and 48 h",no observable ERG protein degradation
same,Interaction with the ETS domain of ETV4,[5],interacts
same,Interaction with the ETS domain of PU.1,[6],interacts
